Assay results reported in ChEMBL document CHEMBL4373730, “Practical approaches to evaluating and optimizing brain exposure in early drug discovery” (Eur J Med Chem, 2019).

Assays:
in vivo = settings: rat, brain and plasma
Description: Unbound brain-to-plasma concentration ratio in rat

[1] = Brain to plasma partition coefficient, Kp of the compound in rat; format: ADME, organism-based; settings: brain and plasma

`CN(C)CCCN1c2ccccc2Sc2ccc(Cl)cc21` [CHLORPROMAZINE] gave a Kp uu (in vivo) of 0.9 and a Kp [1] of 8.5.
With `CN1CCN(C2=Nc3cc(Cl)ccc3Nc3ccccc32)CC1` [CLOZAPINE] the Kp uu (in vivo) was 0.9 and the Kp [1] was 8.5.
With `O=C(CCCN1CCC(O)(c2ccc(Cl)cc2)CC1)c1ccc(F)cc1` [HALOPERIDOL] the Kp uu (in vivo) was 0.9 and the Kp [1] was 8.5.
Molecule `OCCOCCN1CCN(C2=Nc3ccccc3Sc3ccccc32)CC1` [QUETIAPINE] has a Kp uu (in vivo) of 0.9 and a Kp [1] of 8.5.
`Cc1nc2n(c(=O)c1CCN1CCC(c3noc4cc(F)ccc34)CC1)CCCC2` [RISPERIDONE] showed a Kp uu (in vivo) of 0.9 and a Kp [1] of 8.5.
For `O=C1Cc2cc(CCN3CCN(c4nsc5ccccc45)CC3)c(Cl)cc2N1` [ZIPRASIDONE], the Kp uu (in vivo) was 0.9 and the Kp [1] was 8.5.
